Several values for one entry are separate records, joined by “and”; a condition that tells them apart may be missing. Equal values may be shown once. Read-outs that look alike come from different tables or passages of the source.
Tests used:
FGFR3 = target: T1, FGFR3 (Homo sapiens, UniProt P22607); experiment: Isolated enzyme FRET-based Z-Lyte kinase inhibition assay; assay type: biochemical; settings: means from 3 independent experiments; read-out: Isolate Enzyme Inhibition IC50, FGFR3
T1 construct: purchased Invitrogen
Description: (§1) FGFR1-4 and the Z-Lyte Kinase Assay Kit were purchased from Invitrogen. The concentration gradients from 5.1×10^−11 to 1.0×10^−6 mol/L were used for all the test compounds. The experiments were performed according to the instructions of the manufacturer.
(§2) FGFR1-4 isolated enzyme activity was determined using the FRET-based Z-Lyte kinase inhibition assay. The data are the means from 3 independent experiments.

FGFR4 = target: T2, FGFR4 (Homo sapiens, UniProt P22455); experiment: as above; assay type: biochemical; settings: means from 3 independent experiments; read-out: Isolate Enzyme Inhibition IC50, FGFR4
T2 construct: purchased Invitrogen
Description: as §1, §2

FGFR2 = target: T3, FGFR2 (Homo sapiens, UniProt P21802); experiment: as above; assay type: biochemical; settings: means from 3 independent experiments; read-out: Isolate Enzyme Inhibition IC50, FGFR2
T3 construct: purchased Invitrogen
Description: as §1, §2

SUM52 cells = experiment: Oxic and anoxic anti-proliferative activity of the prodrugs; settings: for Hypoxic Cytotoxicity Ratio (HCR), SUM52: ratio of oxic and anoxic IC50
[1] = system: FGFR1 in H520 cells (phospho-ERK1/2); experiment: Drug washout Western blot assay, H520 cells; assay type: cell-based; settings: H520; for reversible or irreversible inhibition of FGFR1 in cells / concentration required to suppress FGFR1 signalling through phospho-ERK1/2: 2 hours exposure; for reversible or irreversible inhibition of FGFR1 in cells: 100, 300 and 600 nM, with and without washout; for concentration required to suppress FGFR1 signalling through phospho-ERK1/2: tested at 100, 300 and 600 nM; for phospho-ERK1/2 after extensive drug washout: 30 min, washout prior to FGF-stimulation
H520 cells = experiment: Oxic and anoxic anti-proliferative activity of the prodrugs
SW780 cells = experiment: Oxic and anoxic anti-proliferative activity of the prodrugs; assay type: cell-based; settings: Homo sapiens, SW780; oxic conditions; read-out: Cellular Anti-proliferative IC50, SW780, Oxic
[2] = system: FGFR3 in SW780 cells (phospho-ERK1/2); experiment: Drug washout Western blot assay, SW780 cells; assay type: cell-based; settings: SW780, 30 min; for inhibition of phosphorylation of ERK1/2, no washout: then FGF-stimulation; for phospho-ERK1/2 after extensive drug washout: washout prior to FGF-stimulation
[3] = system: FGFR2 in SUM52 cells (phospho-ERK1/2); experiment: Drug washout Western blot assay, SUM52 cells; assay type: cell-based; settings: SUM52, 30 min, washout prior to FGF-stimulation
Description: Cells were seeded on the day prior to drug treatment (1 million cells/well; 6-well plate).
Drug stocks were prepared in media using 1 mM or 10 mM DMSO stock solutions. Media was aspirated from each well and replaced with 2 ml of drug-free media for control wells or 2 ml of diluted drug for treated wells. Cells were exposed to drug for 30 min. Recombinant FGF (50 ng/well) was added to each well 15 minutes prior to the end of the drug exposure and protein was extracted as below.
Cells were exposed to drug for 30 min as above. Media was aspirated and each well was washed with 5 ml drug-free media. The wash media was aspirated and replaced with 2 ml drug-free media and cells incubated for a further 30 minutes, after which the wash protocol was repeated. Cells were incubated for a further 90 minutes in drug-free media. Recombinant FGF (50 ng/well) was added to each well 15 minutes prior to the end of the drug-free incubation and protein was extracted as below.
Cell lysates were prepared in 250 μL of RIPA lysis buffer containing protease inhibitor (1:100). After incubation on ice (30 min) and centrifugation (13,000 rpm, 5 min, 4° C.) the supernatants containing the proteins were stored (−20° C.) until required. Bicinchoninic acid (BCA) assay was used to determine the protein concentration of individual cell lysate samples.

[4] = system: FGFR2-amplified SUM52 breast cancer cells; experiment: Cell proliferation assay (SRB); assay type: cell-based; settings: SUM52, 120 h, read-out: Cellular Anti-proliferative IC50, SUM52, 5 days drug exposure
[5] = system: FGFR3-amplified SW780 bladder cancer cells; experiment: Cell proliferation assay (SRB); settings: Homo sapiens, SW780, 120 h, read-out: Cellular Anti-proliferative IC50, SW780, 5 days drug exposure
[6] = read-out: Cellular Anti-proliferative IC50, SUM52, Anoxic, 4 hours of anoxia, remainder of assay oxic
[7] = read-out: Cellular Anti-proliferative IC50, SUM52, Oxic, oxic conditions
[8] = read-out: Cellular Anti-proliferative IC50, H520, Oxic, oxic conditions

T2 sequence (P22455 22-802): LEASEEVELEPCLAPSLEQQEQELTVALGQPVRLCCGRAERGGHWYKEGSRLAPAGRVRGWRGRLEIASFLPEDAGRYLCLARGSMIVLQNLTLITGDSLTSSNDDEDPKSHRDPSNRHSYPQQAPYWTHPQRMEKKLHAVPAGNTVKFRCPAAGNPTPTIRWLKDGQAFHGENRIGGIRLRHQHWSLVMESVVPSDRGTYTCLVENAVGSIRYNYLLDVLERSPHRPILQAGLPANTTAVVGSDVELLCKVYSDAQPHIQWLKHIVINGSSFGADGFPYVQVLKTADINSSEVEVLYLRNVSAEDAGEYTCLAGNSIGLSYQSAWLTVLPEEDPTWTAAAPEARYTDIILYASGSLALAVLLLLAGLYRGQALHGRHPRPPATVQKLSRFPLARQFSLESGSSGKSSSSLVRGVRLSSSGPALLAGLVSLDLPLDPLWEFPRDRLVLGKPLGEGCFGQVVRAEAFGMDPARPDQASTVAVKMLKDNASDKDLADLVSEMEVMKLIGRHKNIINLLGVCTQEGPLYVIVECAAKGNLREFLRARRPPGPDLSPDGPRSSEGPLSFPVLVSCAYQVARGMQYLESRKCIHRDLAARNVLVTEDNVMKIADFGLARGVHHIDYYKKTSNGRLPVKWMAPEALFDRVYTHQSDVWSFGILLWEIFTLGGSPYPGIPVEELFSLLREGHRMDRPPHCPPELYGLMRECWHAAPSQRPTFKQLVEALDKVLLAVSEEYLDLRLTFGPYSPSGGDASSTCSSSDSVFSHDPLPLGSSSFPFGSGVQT
T1 sequence (P22607 23-806): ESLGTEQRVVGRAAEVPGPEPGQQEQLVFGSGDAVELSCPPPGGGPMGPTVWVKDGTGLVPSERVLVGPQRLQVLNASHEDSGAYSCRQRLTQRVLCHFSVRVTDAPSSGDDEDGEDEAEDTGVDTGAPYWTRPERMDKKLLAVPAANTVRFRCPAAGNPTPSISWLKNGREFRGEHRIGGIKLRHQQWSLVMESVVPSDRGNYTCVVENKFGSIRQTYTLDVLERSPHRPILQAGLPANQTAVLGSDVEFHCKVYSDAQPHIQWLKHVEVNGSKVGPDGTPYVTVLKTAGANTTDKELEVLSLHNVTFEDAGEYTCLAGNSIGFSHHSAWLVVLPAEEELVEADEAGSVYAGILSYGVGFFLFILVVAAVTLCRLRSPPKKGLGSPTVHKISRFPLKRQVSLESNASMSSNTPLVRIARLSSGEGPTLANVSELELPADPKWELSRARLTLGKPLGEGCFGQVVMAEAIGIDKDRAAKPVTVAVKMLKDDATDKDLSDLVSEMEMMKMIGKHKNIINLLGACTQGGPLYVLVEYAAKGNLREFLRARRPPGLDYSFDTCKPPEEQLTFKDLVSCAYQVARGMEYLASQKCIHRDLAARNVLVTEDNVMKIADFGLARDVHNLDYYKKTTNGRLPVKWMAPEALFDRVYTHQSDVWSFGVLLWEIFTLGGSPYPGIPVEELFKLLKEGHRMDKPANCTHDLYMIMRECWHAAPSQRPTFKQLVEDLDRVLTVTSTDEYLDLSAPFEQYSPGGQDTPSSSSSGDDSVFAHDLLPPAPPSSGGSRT
T3 sequence (P21802 22-821): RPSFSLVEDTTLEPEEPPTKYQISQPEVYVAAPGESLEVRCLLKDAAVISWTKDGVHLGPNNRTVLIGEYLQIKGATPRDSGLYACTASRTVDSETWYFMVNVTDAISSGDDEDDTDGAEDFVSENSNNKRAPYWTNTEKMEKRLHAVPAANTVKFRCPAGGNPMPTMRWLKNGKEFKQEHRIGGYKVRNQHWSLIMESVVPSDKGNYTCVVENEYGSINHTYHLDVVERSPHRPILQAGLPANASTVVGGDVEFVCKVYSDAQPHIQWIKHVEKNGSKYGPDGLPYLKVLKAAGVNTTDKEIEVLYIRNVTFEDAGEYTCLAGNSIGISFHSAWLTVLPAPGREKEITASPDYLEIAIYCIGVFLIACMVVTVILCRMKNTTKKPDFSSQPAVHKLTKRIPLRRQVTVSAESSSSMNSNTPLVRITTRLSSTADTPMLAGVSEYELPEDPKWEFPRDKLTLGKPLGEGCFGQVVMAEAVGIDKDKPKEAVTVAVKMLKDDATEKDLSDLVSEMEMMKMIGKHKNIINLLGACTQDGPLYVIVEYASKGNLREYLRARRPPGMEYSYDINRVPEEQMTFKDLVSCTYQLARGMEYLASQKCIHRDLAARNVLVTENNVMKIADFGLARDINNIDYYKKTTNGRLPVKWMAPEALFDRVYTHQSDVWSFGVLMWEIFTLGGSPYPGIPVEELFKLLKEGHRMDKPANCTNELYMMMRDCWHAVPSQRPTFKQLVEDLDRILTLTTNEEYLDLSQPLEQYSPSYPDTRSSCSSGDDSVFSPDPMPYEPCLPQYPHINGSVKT

COc1cc(Nc2ncc3c(n2)N(C2CCN(C(=O)/C=C/CN(C)C)CC2)C(=O)N(c2c(Cl)c(OC)cc(OC)c2Cl)C3)ccc1F [Compound 118, (E)-3-(2,6-dichloro-3,5-dimethoxyphenyl)-1-(1-(4-(dimethylamino)but-2-enoyl)piperidin-4-yl)-7-((4-fluoro-3-methoxyphenyl)amino)-3,4-dihydropyrimido[4,5-d] pyrimidin-2(1H)-one]
IC50 (FGFR3): 2.4 nM
IC50 (FGFR4): < 100 nM and 9.6 nM

CNc1ncc2c(n1)N(CCCNC(=O)/C=C/CN(C)C)C(=O)N(c1c(Cl)c(OC)cc(OC)c1Cl)C2 [Compound 125, (E)-N-(3-(3-(2,6-dichloro-3,5-dimethoxyphenyl)-7-(methylamino)-2-oxo-3,4-dihydropyrimido[4,5-d]pyrimidin-1(2H)-yl)propyl)-4-(dimethylamino)but-2-enamide]
IC50 (FGFR3): 51 nM
IC50 (FGFR2): 6.5 nM
IC50 (FGFR4): > 1000 nM

COc1cc(OC)c(Cl)c(N2Cc3cnc(NC(C)C)nc3N([C@H]3CCN(C(=O)/C=C/C[N+](C)(C)Cc4c([N+](=O)[O-])ncn4C)C3)C2=O)c1Cl.[Br-] [Compound 201, (S,E)-4-(3-(3-(2,6-dichloro-3,5-dimethoxyphenyl)-7-(isopropylamino)-2-oxo-3,4-dihydropyrimido[4,5-d]pyrimidin-1(2H)-yl)pyrrolidin-1-yl)-N,N-dimethyl-N-((1-methyl-4-nitro-1H-imidazol-5-yl)methyl)-4-oxobut-2-en-1-aminium bromide]
Hypoxic Cytotoxicity Ratio (HCR), SUM52 (SUM52 cells): 16
IC50 (SUM52 cells; [6]): 38 nM
IC50 (SUM52 cells; [7]): 612 nM
reversible or irreversible inhibition of FGFR1 in cells [1]: reversible inhibitors
IC50 (H520 cells; [8]): 902 nM
melting point: 184 to 187 °C
IC50 (SW780 cells): 1990 nM

COc1cc(OC)c(Cl)c(N2Cc3cnc(Nc4ccc(F)cc4)nc3N(C3CCN(C(=O)/C=C/C[N+](C)(C)Cc4c([N+](=O)[O-])ncn4C)CC3)C2=O)c1Cl.O=C([O-])C(F)(F)F [Compound 205, (E)-4-(4-(3-(2,6-dichloro-3,5-dimethoxyphenyl)-7-((4-fluorophenyl)amino)-2-oxo-3,4-dihydropyrimido[4,5-d]pyrimidin-1(2H)-yl)piperidin-1-yl)-N,N-dimethyl-N-((1-methyl-4-nitro-1H-imidazol-5-yl)methyl)-4-oxobut-2-en-1-aminium 2,2,2-trifluoroacetate]
Hypoxic Cytotoxicity Ratio (HCR), SUM52 (SUM52 cells): 6
IC50 (SUM52 cells; [6]): 4 nM
IC50 (SUM52 cells; [7]): 23 nM
reversible or irreversible inhibition of FGFR1 in cells [1]: reversible inhibitors
concentration required to suppress FGFR1 signalling through phospho-ERK1/2 [1]: > 300 nM
IC50 (H520 cells; [8]): 668 nM
melting point: 162 to 165 °C
IC50 (SW780 cells): 1470 nM

COc1cc(OC)c(Cl)c(-c2cc3cnc(NC(C)C)cc3n(C3CCN(C(=O)/C=C/C[N+](C)(C)Cc4c([N+](=O)[O-])ncn4C)CC3)c2=O)c1Cl.[Br-] [Compound 215, (E)-4-(4-(3-(2,6-dichloro-3,5-dimethoxyphenyl)-7-(isopropylamino)-2-oxo-1,6-naphthyridin-1(2H)-yl)piperidin-1-yl)-N,N-dimethyl-N-((1-methyl-4-nitro-1H-imidazol-5-yl)methyl)-4-oxobut-2-en-1-aminium bromide]
Hypoxic Cytotoxicity Ratio (HCR), SUM52 (SUM52 cells): 106
IC50 (SUM52 cells; [6]): 11 nM
IC50 (SUM52 cells; [7]): 1190 nM
Hypoxic Cytotoxicity Ratio (HCR), H520 (H520 cells; ratio of oxic and anoxic IC50): 19
IC50 (H520 cells; read-out: Cellular Anti-proliferative IC50, H520, Anoxic, 4 hours of anoxia, remainder of assay oxic): 209 nM
IC50 (H520 cells; [8]): 4020 nM
melting point: 202 to 205 °C
IC50 (SW780 cells): 3500 nM

COc1cc(OC)c(Cl)c(N2Cc3cnc(Nc4ccc(N5CCOCC5)cc4)nc3N(C3CCN(C(=O)/C=C/C[N+](C)(C)Cc4c([N+](=O)[O-])ncn4C)CC3)C2=O)c1Cl.[Br-] [Compound 218, (E)-4-(4-(3-(2,6-dichloro-3,5-dimethoxyphenyl)-7-((4-morpholinophenyl)amino)-2-oxo-3,4-dihydropyrimido[4,5-d]pyrimidin-1(2H)-yl)piperidin-1-yl)-N,N-dimethyl-N-((1-methyl-4-nitro-1H-imidazol-5-yl)methyl)-4-oxobut-2-en-1-aminium bromide]
Hypoxic Cytotoxicity Ratio (HCR), SUM52 (SUM52 cells): 4
IC50 (SUM52 cells; [6]): 3 nM
IC50 (SUM52 cells; [7]): 14 nM
melting point: > 295 °C

COc1cc(OC)c(Cl)c(N2Cc3cnc(Nc4ccc(N5CCOCC5)cc4)nc3N(C3CCN(C(=O)/C=C/C[N+](C)(C)Cc4c([N+](=O)[O-])ncn4C)CC3)C2=O)c1.[Br-] [Compound 219, (E)-4-(4-(3-(2-chloro-3,5-dimethoxyphenyl)-7-((4-morpholinophenyl)amino)-2-oxo-3,4-dihydropyrimido[4,5-d]pyrimidin-1(2H)-yl)piperidin-1-yl)-N,N-dimethyl-N-((1-methyl-4-nitro-1H-imidazol-5-yl)methyl)-4-oxobut-2-en-1-aminium bromide]
Hypoxic Cytotoxicity Ratio (HCR), SUM52 (SUM52 cells): 22
IC50 (SUM52 cells; [6]): 2 nM
IC50 (SUM52 cells; [7]): 52 nM
melting point: 241 to 244 °C

COc1cc(OC)cc(N2Cc3cnc(Nc4ccc(N5CCOCC5)cc4)nc3N(C3CCN(C(=O)/C=C/C[N+](C)(C)Cc4c([N+](=O)[O-])ncn4C)CC3)C2=O)c1.[Br-] [Compound 220, (E)-4-(4-(3-(3,5-dimethoxyphenyl)-7-((4-morpholinophenyl)amino)-2-oxo-3,4-dihydropyrimido[4,5-d]pyrimidin-1(2H)-yl)piperidin-1-yl)-N,N-dimethyl-N-((1-methyl-4-nitro-1H-imidazol-5-yl)methyl)-4-oxobut-2-en-1-aminium bromide]
Hypoxic Cytotoxicity Ratio (HCR), SUM52 (SUM52 cells): 48
IC50 (SUM52 cells; [6]): 36 nM
IC50 (SUM52 cells; [7]): 1720 nM
melting point: 192 to 195 °C

CCN(CC)CCCCNc1ncc2cc(-c3cc(OC)cc(OC)c3)c(NC(=O)NC(C)(C)C)nc2n1 [PD173074, reference compound]
inhibition of phosphorylation of ERK1/2, no washout ([2]; 100 nM): less effective
phospho-ERK1/2 after extensive drug washout ([2]; 100 nM): restoration
inhibition of phosphorylation of ERK1/2, no washout ([2]; 1000 nM): complete inhibition
phospho-ERK1/2 after extensive drug washout ([2]; 1000 nM): restoration
phospho-ERK1/2 after extensive drug washout ([3]; 100 nM): restoration
phospho-ERK1/2 after extensive drug washout ([3]; 1000 nM): restoration
IC50 [4]: 12 nM
phospho-ERK1/2 after extensive drug washout ([1]; 100 nM): restoration
phospho-ERK1/2 after extensive drug washout ([1]; 1000 nM): restoration
reversible or irreversible inhibition of FGFR1 in cells [1]: potent reversible inhibitor
concentration required to suppress FGFR1 signalling through phospho-ERK1/2 [1]: ≤ 100 nM
IC50 [5]: 84 nM
